Reference: patent US5798447A, “Antibodies specific for D-myo-inositol 1, 4, 5-trisphosphate and the enzyme-linked immunosorbent assay of D-myo-inositol 1, 4, 5-trisphosphate” (The Board of Governors for Higher Education State of Rhode …, priority 1996, dated 1998)
pIC50: −log10 of the molar value. Entries after “also recorded” stand apart in the source; their conditions may differ.

What was measured:
[1] = system: affinity-purified Ins(1,4,5)P3-specific antibodies (from IP3 -C5 -BSA induced antiserum); test: Competitive ELISA with affinity-purified Ins(1,4,5)P3-specific antibodies and inositol phosphates; format: binding, New Zealand White rabbit
Description: (§1) The presence of anti-Ins(1,4,5)P3 antibodies in rabbit serum was detected by an ELISA. Ins(1,4,5)P3 (hapten) was covalently attached to microtiter plates through a C-6 linker by adding 6-O-(ω-Aminohexyl)-D-myo-inositol 1,4,5-triphosphate (1) (1.25 μg in 0.1 ml of phosphate buffered saline (PBS) per well) to maleic anhydride-activated polystyrene plates (Pierce). This anhydride-activated plate allows direct coupling of amine-bearing molecules to the well surface, (Pierce Chemical Co. Instruction 15110X (1992) REACTI-BIND™ Maleic Anhydride Activated Polystyrene Plates), and obviates the need for a carrier protein to immobilize haptens. The plate was incubated at room temperature overnight, and each well was blocked by adding 0.12 ml of SUPERBLOCK ™ blocking solution in PBS (Pierce). After 10 minutes at room temperature, the plate was washed twice with 0.05% Tween-20 in 10 mM Tris/HCl containing 0.85% NaCl, pH 7.2 (TBS), followed by TBS buffer twice. Rabbit antiserum (antibodies) diluted in TBS buffer containing 0.1% gelatin was added (95 μl per well). The plate was incubated at 37° C. for 2 hours, and washed as stated above. Specific antibody binding was assessed by adding goat anti-rabbit IgG-HRP conjugate (1/200 dilution in TBS containing 0.1% gelatin; 90 μl per well), and the plate was incubated for another 2 hours at 37° C. After the plate was washed again, the peroxidase substrate solution (90 μl per well) containing 2 mM 2,2'-azinobis(3-ethyl-benzthiazoline-6-sulfonic acid), 2.5 mM hydrogen peroxide, and 50 mM citrate buffer, with a final pH of 5.0, was added. The reaction was incubated at room temperature for 15-20 minutes, and terminated by adding 20 μl of 5% SDS to each well. The absorbance at 415 nm was measured by a microtiter plate reader. Rabbit serum taken before immunization was used as a control in all the assays, from which the absorbance values obtained served as a blank for the correction of experimental data.
The antiserum (5.2 ml) was applied to an ECONO-PAC ™ protein A cartridge (5 ml, Bio-Rad) equilibrated with 100 mM Tris/HCl, pH 8.0. The column was washed with, in sequence, 20 ml of the equilibrating buffer, and 25 ml of 10 mM Tris/HCl, pH 8.0. The bound IgG was eluted with 25 ml of 100 mM glycine buffer, pH 3.0, at a flow rate of 0.5 ml/min. Fractions of 1.7 ml were collected in tubes containing 100 μl of 1M Tris/HCl, pH 8.0.
The dialyzed solution from step 1 was applied to a Ins(1,4,5)IP3 -agarose column (5.8 ml bed volume) equilibrated with 10 mM Tris/HCl, pH 7.5. The column was washed with the equilibration buffer followed by 500 mM NaCl in the same buffer. The absorbed proteins were eluted with, in sequence, 50 ml of 100 mM glycine buffer, pH 3.5, 10 ml of 10 mM Tris/HCl, pH 8.8, and 50 ml of 100 mM NaHCO3 /Na2 CO3 buffer, pH 10.5 Fractions of 1.7 ml were collected. For the eluate with the glycine buffer and with the NaHCO3 /Na2 /CO3 buffer, fractions were collected in tubes containing 100 μl of 1M Tris/HCl, pH 8.0, and 700 μl of 1M Tris/HCl, pH 7.6, respectively.
Referring to FIG. 2, the displacement curves were generated from competitive ELISA experiments between immobilized (1,4,5)IP3 and various inositol phosphates shown in the insert. The antibodies were preincubated with individual competitors at various concentrations for 30 minutes at room temperature before added to the (1,4,5)IP3 immobilized EIA plates. The assay for the competitive binding was the same as that described for the ELISA under "Experimental Procedures". Percentage total specific binding is expressed by B/Bo, where B=absorbance with competitor and Bo =absorbance without competitor. Each data point represents the means of three determinations. For clarity, the standard deviations were not shown.

[2] = system: IP3 -C6 -NC5 -BSA induced antibodies (anti-Ins(1,4,5)P3 antiserum); test: Competitive ELISA: immobilized Ins(1,4,5)P3 vs competitor, IP3-C6NC5-BSA induced antiserum; format: binding, New Zealand White rabbit; conditions: for IC50: IP3-C6-NC5-BSA induced antibodies, competitive ELISA, read-out: [Competitor] (M) at half maximal absorbance (B/Bo = 0.5) or IC50
Description: (§2) New Zealand White female rabbits were immunized with 1 mg of the IP3 -BSA conjugate in 0.5 ml of saline emulsified with an equal volume of Freund's complete adjuvant by five to six subcutaneous injections at the back and both flanks. Booster injections were given with the same amounts of the IP3 -BSA prepared with incomplete Freund's adjuvant at monthly intervals. After the second boost, the animals were bled from the ear vein 2 weeks after each booster injection. The antisera thus prepared were stored at -20° C. until used.
as §1
(§3) The avidity and specificity of these antisera were examined by competitive ELISA experiments between immobilized Ins(1,4,5)P3 and various inositol phosphates.
(§4) Table 1 Avidity of antisera toward various inositol phosphates and
(§5) PIP2. The avidity is expressed as the concentrations at halfmaximal
(§6) absorbance (B/Bo = 0.5) in the competitive ELISA experiments.

[3] = system: IP3 -C5 -BSA induced antibodies (anti-Ins(1,4,5)P3 antiserum); test: Competitive ELISA: immobilized Ins(1,4,5)P3 vs competitor, IP3-C5-BSA induced antiserum; format: binding, New Zealand White rabbit; conditions: for IC50: competitive ELISA, read-out: [Competitor] (M) at half maximal absorbance (B/Bo = 0.5) or IC50
Description: as §2, §1, §3, §4, §5, §6

[4] = system: affinity-purified Ins(1,4,5)P3-specific antibodies; test: Inhibition of binding of affinity-purified antibodies to immobilized Ins(1,4,5)P3 by ions; design: species or system New Zealand White rabbit; conditions: for inhibition of / interference with antibody binding to immobilized Ins(1,4,5)P3: concentration not stated with the result, or 'high concentrations'; for inhibition of antibody recognition by cations: concentrations up to 100 mM; for interference with antibody binding to immobilized Ins(1,4,5)P3: up to 0.3 mM; for pIC50: affinity-purified antibodies, preincubation 30 minutes, room temperature, read-out: IC50 for inhibition of antibody binding to immobilized Ins(1,4,5)P3
Description: as §1
Referring to FIG. 3, the affinity-purified antibodies were preincubated with individual multivalent ions at indicated concentrations for 30 minutes at room temperature before added to the (1,4,5)IP3 immobilized EIA plates. […] The assay for the binding inhibition was the same as that described for the ELISA in the Experimental Procedures. Percentage maximal antibody binding is expressed by B/Bo, where B=absorbance with inhibitor and Bo =absorbance without inhibitor. Each data point represents the means of three determinations.

Ins(1,4,5)P3 receptors = conditions: Wilcox et al. 1993, cited from earlier work; for pIC50: read-out: IC50 for displacing [3H]Ins(1,4,5)P3 binding from Ins(1,4,5)P3 receptors

| Molecule | IC50 [2] [M] | lower affinity relative to Ins(1,4,5)P3 ([2]; both antiserum preparations) | IC50 ([3]; IP3-C5-BSA induced antibodies) [M] | inhibition of / interference with antibody binding to immobilized Ins(1,4,5)P3 [4] | other results |
| --- | --- | --- | --- | --- | --- |
| O=P(O)(O)OC1C(O)C(OP(=O)(O)O)C(OP(=O)(O)O)C(OP(=O)(O)O)C1OP(=O)(O)O (stereo not shown) [Ins(1,3,4,5,6)P5] |  |  |  |  | pIC50 [1]: 4.35; IC50 relative to that of Ins(1,4,5)P3 [1]: three orders or magnitude higher |
| O=P(O)(O)O[C@H]1[C@H](OP(=O)(O)O)[C@@H](OP(=O)(O)O)[C@@H](O)[C@@H](O)[C@@H]1OP(=O)(O)O [Ins(3,4,5,6)P4] | 4.5e-06 | two to four orders of magnitude | 6.3e-06 |  |  |
| [Na+] [Na+] |  |  |  | no inhibiting effect; also recorded: did not affect the binding | inhibition of antibody recognition by cations [4]: did not cause significant inhibition |
| heparin |  |  |  |  | interference with antibody binding to immobilized Ins(1,4,5)P3 [4]: not affected; interference with antibody binding to immobilized Ins(1,4,5)P3 ([4]; listed as haparin): no appreciable interference |
| [K+] [K+] |  |  |  | did not affect the binding | inhibition of antibody recognition by cations [4]: did not cause significant inhibition |
| O=P(O)(O)O[C@H]1[C@H](OP(=O)(O)O)[C@@H](OP(=O)(O)O)[C@H](O)[C@@H](O)[C@H]1OP(=O)(O)O [Ins(1,2,5,6)P4] | 2.1e-05 | two to four orders of magnitude | 7.1e-05 |  |  |
| NC(CO)(CO)CO [Tris] |  |  |  |  | inhibition of antibody recognition by cations [4]: did not cause significant inhibition |
| [N-]=[N+]=[N-] [N3 -] |  |  |  | no appreciable interference |  |
| PIP2 | 1.6e-05 | two to four orders of magnitude | 3.2e-05 |  | pIC50 [1]: 4.85; IC50 relative to that of Ins(1,4,5)P3 [1]: three orders or magnitude higher |
| O=P(O)(O)O[C@H]1[C@H](OP(=O)(O)O)[C@@H](OP(=O)(O)O)[C@H](OP(=O)(O)O)[C@@H](OP(=O)(O)O)[C@H]1OP(=O)(O)O [IP6, Phytic acid] | 0.00015 | two to four orders of magnitude | 0.0008 |  |  |
| O=S(=O)(O)O [SO4^2 -] |  |  |  | could be disrupted | pIC50 [4]: 1.94 |
| N.N.O=S(=O)(O)O [(NH4)2 SO4] |  |  |  |  | binding capability of antibodies after (NH4)2SO4 precipitation ([4]; even after extensive dialysis): complete loss of binding capability |
| O=P(O)(O)O [HPO4^2 -] |  |  |  | could be disrupted | pIC50 [4]: 2.58 |
| O=P(O)(O)O[C@@H]1[C@@H](O)[C@H](O)[C@H](O)[C@H](O)[C@H]1OP(=O)(O)O [Ins(4,5)P2] | 3.8e-05 | two to four orders of magnitude | 2.5e-05 |  | pIC50 [1]: 4.85; IC50 relative to that of Ins(1,4,5)P3 [1]: three orders or magnitude higher |
| Nc1ncnc2c1ncn2[C@@H]1O[C@H](COP(=O)(O)OP(=O)(O)OP(=O)(O)O)[C@@H](O)[C@H]1O [ATP^4 -] |  |  |  | could be disrupted | pIC50 [4]: 3.68 |
| O=P(O)(O)O[C@H]1[C@H](O)[C@@H](OP(=O)(O)O)[C@H](OP(=O)(O)O)[C@@H](OP(=O)(O)O)[C@H]1O [Ins(1,3,4,5)P4] | 2e-07 |  | 7.1e-08 |  | ratio of IC50[Ins(1,3,4,5)P4] to IC50[Ins(1,4,5)P3] ([2]; antiserum against IP3-C6NC5-BSA): 2.2; affinity relative to Ins(1,4,5)P3 ([2]; both antiserum preparations): one-third of the affinity; binding compared with IP3-C6NC5-BSA induced antiserum ([3]; IP3-C5-BSA induced antibodies): stronger binding; ratio of IC50[Ins(1,3,4,5)P4] to IC50[Ins(1,4,5)P3] ([3]; antiserum against IP3-C5-BSA): 2.3; differential affinity, ratio of IC50 values before purification ([3]; antiserum before affinity purification): 2 fold; pIC50 [1]: 6.14; differential affinity, ratio of IC50 values Ins(1,3,4,5)P4 / Ins(1,4,5)P3 [1]: 60 fold; weaker than Ins(1,4,5)P3 at displacing specific [3H]Ins(1,4,5)P3 binding (Ins(1,4,5)P3 receptors): about 40 fold; pIC50 (Ins(1,4,5)P3 receptors): 6.12 |
| O=P(O)(O)OC1[C@H](O)[C@H](O)C(O)[C@H](O)[C@H]1O (stereo partly shown) [Ins(1)P1] | 0.00042 | two to four orders of magnitude |  |  |  |
| O=P(O)(O)O[C@@H]1[C@H](O)[C@H](O)[C@@H](OP(=O)(O)O)[C@H](OP(=O)(O)O)[C@H]1O [Ins(1,4,5)P3, D-myo-inositol 1,4,5-trisphosphate] | 8.9e-08 |  | 3.1e-08 |  | binding compared with IP3-C6NC5-BSA induced antiserum ([3]; IP3-C5-BSA induced antibodies): stronger binding; pIC50 [1]: 7.92; pIC50 (Ins(1,4,5)P3 receptors): 7.68 |
| O=P(O)(O)O[C@H]1[C@H](O)[C@@H](O)[C@H](OP(=O)(O)O)[C@@H](OP(=O)(O)O)[C@H]1O [Ins(1,3,4)P3] | 1.7e-06 | two to four orders of magnitude | 1e-05 |  | decrease in affinity compared with IP3-C6NC5-BSA induced antiserum ([3]; IP3-C5-BSA induced antibodies): 10 fold; pIC50 [1]: 4.41; IC50 relative to that of Ins(1,4,5)P3 [1]: three orders or magnitude higher |
| Cl [C1-] |  |  |  | no appreciable interference |  |
| N [NH4 +] |  |  |  |  | inhibition of antibody recognition by cations [4]: did not cause significant inhibition |
| O=P(O)(O)O[C@H]1[C@H](OP(=O)(O)O)[C@H](O)[C@H](O)[C@@H](O)[C@@H]1OP(=O)(O)O [Ins(1,5,6)P3] |  | two to four orders of magnitude |  |  | order of affinity toward various inositol phosphates ([2]; IP3-C6NC5-BSA induced antiserum): Ins(3,4,5,6)P4 >Ins(1,5,6)P3, PIP2, Ins(1,2,5,6)P4 >Ins(4,5)P2 |
